From US6277418A, “Corn extract contraceptive” (Baylor College of Medicine, priority 1999, dated 2001)

Assays:
[1] = system: MCF-7 (ER+) human breast cancer cells; experiment: MCF-7 cell proliferation (cell number); type: cell-based
From the text: An aliquot of the GCCB crude extract was fractionated on a Spice C18 Cartridge (a reverse phase column using aliphatic groups attached to a matrix to form a hydrophobic adsorbent. Rainin Instruments Company). Briefly, a GCCB extract in 20% methanol in water was loaded onto a spice cartridge and the pass through (20% methanol) fraction was collected. The column was sequentially eluted with a solution of water comprising 40%, 60%, and 80% methanol in water. The final elution was with 100% methanol. Each fraction, including the pass through fraction, was collected and dried at 50° C. under nitrogen to remove methanol. The eluate was re-dissolved in 100% ethanol. […] Six days following treatment, cell number was determined by hemocytometer counts and results are expressed as cell number in treated wells relative to ethanol controls (100%) as described (B. M. Markaverich et al., J. Steroid Biochem. 29:71-78, 1988; B. M. Markaverich et al., Cancer Res. 50: 1470-1478, 1990; B. M. Markaverich et al., JBC 263: 7203-7210, 1988; B. M. Markaverich et al., Internat. J. Oncol. 4:1291-1300, 1994).
In a further study, the effects of fractionated GCCB extract on the proliferation of the MCF-7 and MDA-231 human breast cancer cells were analyzed. […] Six days following treatment, cell number (% Control) was determined. […]
Cell number was determined 6 days following treatment. […]

[2] = target: T1, estrogen receptor (Rattus norvegicus, UniProt P06211); experiment: [3H]estradiol binding to estrogen receptor in rat uterine cytosol; conditions: 10 nM [3H]estradiol, extracts rediluted 1:1000, 1-50 μl
T1 sequence (P06211 1-600): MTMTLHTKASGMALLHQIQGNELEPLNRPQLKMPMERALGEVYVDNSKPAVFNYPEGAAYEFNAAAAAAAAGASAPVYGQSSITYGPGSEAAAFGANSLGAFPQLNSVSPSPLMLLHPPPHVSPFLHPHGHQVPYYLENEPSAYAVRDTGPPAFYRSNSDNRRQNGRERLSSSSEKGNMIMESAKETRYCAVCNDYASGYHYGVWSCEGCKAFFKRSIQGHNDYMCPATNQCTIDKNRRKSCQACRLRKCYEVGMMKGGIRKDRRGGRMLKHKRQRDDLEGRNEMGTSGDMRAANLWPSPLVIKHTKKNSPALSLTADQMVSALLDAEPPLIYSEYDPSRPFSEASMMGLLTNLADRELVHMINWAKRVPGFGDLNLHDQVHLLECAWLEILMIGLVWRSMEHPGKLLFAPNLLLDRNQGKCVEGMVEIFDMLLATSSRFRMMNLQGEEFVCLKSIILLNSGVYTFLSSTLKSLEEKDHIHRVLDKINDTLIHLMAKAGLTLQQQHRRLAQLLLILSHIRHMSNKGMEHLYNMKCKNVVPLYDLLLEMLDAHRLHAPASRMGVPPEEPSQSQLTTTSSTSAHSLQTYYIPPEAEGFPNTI

Row | SMILES | inhibition of MCF-7 proliferation by antiestrogen alone ([1]; 10 nM, in the absence of estrogen, 6 days) | inhibition at 0.01 µM ([1]; Homo sapiens, MCF7, 144 h, read-out: block of the estradiol-induced stimulation of MCF-7 cell proliferation) [%] | competition for [3H]estradiol binding to estrogen receptor [2]
1 | C[C@]12CC[C@@H]3c4ccc(O)cc4C[C@@H](CCCCCCCCC[S+]([O-])CCCC(F)(F)C(F)(F)F)[C@H]3[C@@H]1CC[C@@H]2O (stereo partly drawn) [ICI-182,780] | failed to inhibit | > 50 | 
2 | O=c1c(-c2ccc(O)cc2)coc2cc(O)ccc12 [daidzein] |  |  | competitively inhibit
